Laboratory results taken from patent US11045409B2, “Composition comprising a water-insoluble solid organic UV-screening agent and a compound capable of establishing hydrogen bonds” (L'OREAL, priority 2013, dated 2021).

Experiment: Maximum solubility of UV-screening agents in compound (B)/isododecane mixtures
Assay type: physicochemical
Conditions: sonication 45° C. 30 minutes, stable two months at room temperature
Protocol: Solubility Test of the Screening Agents (A) in Mixtures of Compounds (B) and of Isododecane —
300 mg of water-insoluble solid UV-screening agent (A) or of UV-screening agent outside the invention were weighed out in a 10 ml flask, and compound (B) (as a mixture at 50% by weight in isododecane) was then added in increasing amounts until dissolution of the screening agent was complete. The dissolution was performed by sonication at 45° C. for 30 minutes, followed by cooling to room temperature. […] The maximum solubility was given in w/w %, which represents the mass percentage of UV-screening agent in the (B)/isododecane/UV-screening agent mixture. The maximum solubility of the solid screening agent (A) in a solution of isododecane alone (Bo) was also measured as reference.

[1] = in compound (B1) at 50% by weight in isododecane
[2] = in compound (B2) at 50% by weight in isododecane
[3] = in isododecane alone (B0), reference

Maximum solubility of the UV-screening agent [1] [w/w %] | Maximum solubility of the UV-screening agent [2] [w/w %] | Maximum solubility of the UV-screening agent [3] | SMILES
2.5 | 5 | insoluble | CCCCCCCCOC(=O)/C(C#N)=C\C=C\N(CC)CC [UV-screening agent No. 4]
5 | 2.5 | insoluble | CCCCCCCCOC(=O)/C(C#N)=C\C=C\N(CCO)CCO [UV-screening agent No. 3]

The next lines start with the compound.

SMILES | Maximum solubility of the UV-screening agent [1] [w/w %] | Maximum solubility of the UV-screening agent [2] [w/w %] | Maximum solubility of the UV-screening agent [3]
CCCCC(CC)COc1ccc(-c2nc(-c3ccc(OC)cc3)nc(-c3ccc(OCC(CC)CCCC)cc3O)n2)c(O)c1 (stereo not drawn) [UV-screening agent No. 8, 2,4-bis{[4-(2-ethylhexyloxy)-2-hydroxy]phenyl}-6-(4-methoxyphenyl)-1,3,5-triazine] | 5 | 5 | 1 w/w %
COc1ccc(C(=O)CC(=O)c2ccc(C(C)(C)C)cc2)cc1 [UV-screening agent No. 1, Butylmethoxydibenzoylmethane] | 15 | 15 | 1 w/w %
Cc1cc(CC(C)C[Si](C)(O[Si](C)(C)C)O[Si](C)(C)C)c(O)c(-n2nc3ccccc3n2)c1 (stereo not drawn) [UV-screening agent No. 2, Drometrizole Trisiloxane] | 30 | 30 | 5 w/w %
